Results on five compounds are retold here after US20240342204A1, “METHOD OF TREATING VETERINARY VIRAL DISEASES” (Intervet Inc., priority 2021, published 2024).

The subject of experiment [1] is Feline Infectious Peritonitis Virus (FIPV) strain 79-1146. Description: CPE antiviral assay for FIPV in Crandell-Rees Feline Kidney (CrFK) cells. In kind it is cell-based.
For experiment [2], the system named is feline infectious peritonitis (FIP) virus. The conditions noted are these: tissue culture and experimental cat infection studies; cited from earlier work.
Experiment [3] relates to Porcine rotavirus A strain of serotype G5P7. Description: Anti-porcine rotavirus immunofluorescent assay in MA-104 cells, strain G5P7. The conditions noted are these: MA104, 72 h, read-out: EC50, replication of porcine rotavirus reduced by half, G5P7 strain. In kind it is cell-based. On the procedure: (§1) Example 3 Anti-Porcine Rotavirus Activity of β-D-N(4)-Hydroxycytidine (NHC)
(§2) The anti-rotaviral activity of NHC against swine rotaviruses was tested in a cell culture-based assay. MA-104 (Rhesus monkey kidney tissue) cells were cultured and harvested according to standard procedures. The harvested MA-104 cell suspension was seeded onto 96-well plates (Greiner CELLSTAR® black, Sigma-Aldrich® M0562) in 200 μl/well M6B8 medium with 5% FBS at a density of 3×10^4 cells/mL. After 4 days of culturing, the monolayers were washed and the cells were infected with rotavirus A by adding 100 μl/well of 3630 TCID50/mL Porcine rotavirus A strain of serotype G5P7 (ATCC, VR-892) or strain G9P7 (MAH Worthington, USA). […] Replication inhibition of the Rotavirus A strains by NHC was quantified using a mouse-anti-Rotavirus A strain-specific monoclonal antibody (Ingenasa, #1JF10) followed by FITC-fluorochrome conjugated goat-anti-mouse antibody (Nordic) and DAPI (Sigma Aldrich) nuclear staining in an immunofluorescent assay. The extent of immunofluorescence was quantified as relative fluorescence units (RFU) at 485 nm excitation and 528 nm emission using a Cytation 5 cell imaging multimode reader and Gen5 software version 3.10 (Agilent BioTek). […]

Experiment [4] concerns bovine viral diarrhea virus (BVDV). The conditions noted are these: BVDV virus yield; read-out: EC90, virus yield assays; cited from earlier work.
In experiment [5] the test system is swine influenza virus strain A/swine/Belgium/113/2013 (H3N2). Nature of the experiment: organism not typed. In kind it is cell-based. The note with it: MDCK, 24 h, read-out: EC50, replication of swine influenza virus reduced by half, H3N2 strain.
Experiment [6] relates to cytopathic bovine viral diarrhea virus (BVDV) RNA. The conditions noted are these: dose-dependent inhibition of BVDV RNA production; read-out: 90% effective concentration (EC90), production of cytopathic BVDV RNA; cited from earlier work. (In general: Cytopathic effects are the visible damage that an infection or toxin causes in cultured cells.)
Experiment [7] relates to Porcine rotavirus A strain G9P7. Nature of the experiment: Anti-porcine rotavirus immunofluorescent assay in MA-104 cells, strain G9P7. The conditions noted are these: MA104, 72 h, 3 days, immunofluorescence (FIG. 3b), read-out: EC50, replication of porcine rotavirus reduced by half, G9P7 strain. In kind it is cell-based. On the procedure:
as §1, §2

For experiment [8], the system named is swine influenza virus strain A/swine/MN/A01483170/2014 (H1N1 pdm). Description: microbe, parasite or virus in culture. In kind it is cell-based. The conditions noted are these: H1N1, MDCK, in Sus scrofa, 24 h, read-out: EC50, replication of swine influenza virus reduced by half, H1N1pdm strain.
Experiment [9] relates to feline calicivirus (FCV) field strain 255. Description: CrFK cell based antiviral activity against Feline Calicivirus (CPE, CellTiterGlo). The conditions noted are these: 48 h, read-out: ED50 of NHC against Feline calicivirus. As to the method:
Example 2 CrFK Cell Based Antiviral Activity of NHC Against Feline Calicivirus (FCV)
Monolayers of Crandell-Rees Feline Kidney (CrFK) cells grown in 96-well plates (Greiner Cat #655090) in 100 μl/well M6B8 medium supplemented with 5% FCS and 0.15% NaHCO3 at a density of 2×10^5 cells/ml were infected with feline calicivirus (FCV) field strain 255 at multiplicities of infection of 0.01 and 0.001. NHC was added in ⅓ serial dilutions to the infected cells to yield a test concentration range of from 10 μM to 0.000508 μM and cultures were incubated for up to 48 hours at 37° C. and 5% C02. The extent of viral replication was assessed by determining the degree of FCV-induced cytopathic effect (CPE) using the CellTiterGlo® Luminescent Cell Viability Assay (Promega Cat #G7571) by adding the reagent 1:1 (v/v) to the culture plates that have been equilibrated to room temperature for 30 minutes. Plates were incubated for 10 minutes at room temperature and subsequently read for luminescence in a Biotek Cytation5. The effective concentration of NHC that reduced FCV replication by 50% (EC50) was calculated in a 4-parameter nonlinear regression model using GraphPad Prism 8.

The mark [10] stands for this setting: FIPV strain 79-1146 infected CRFK cells, 96 hrs, CPE by CellTiterGlo, read-out: EC 50.

Like-named read-outs stand apart in the source and are kept apart here. Where only a bound is given, the exact number is not on record here.

Turning to `CC(C)C[C@H](NC(=O)OCc1ccccc1)C(=O)N[C@@H](CC1CCNC1=O)C(O)S(=O)(=O)O` (stereo partly shown) [GC-376], the EC50 in experiment [1] (setting [10]) was in the range of 1820 to 3000 nM.

Regarding `N#C[C@@]1(c2ccc3c(N)ncnn23)O[C@H](CO)[C@@H](O)[C@H]1O` [GS-441524], the “Inhibition of FIP virus (in words)” value in [2] is “strongly inhibit”.

On to `C[C@@]1(O)[C@H](O)[C@@H](CO)O[C@H]1n1ccc2c(N)ncnc21` [MK-0608], for which the EC50 in [1] (setting [10]) is > 30000 nM.

As for `O=c1nc(NO)ccn1[C@@H]1O[C@H](CO)[C@@H](O)[C@H]1O` [NHC, 1-((2R,3R,4S,5R)-3,4-dihydroxy-5-(hydroxymethyl)tetrahydrofuran-2-yl)-4-(hydroxyamino)pyrimidin-2(1H)-one], the EC50 in experiment [3] is 2600 nM; in experiment [1] (Alphacoronavirus 1, FIPV strain 79-1146 infected CRFK cells, 96 hrs, CPE by CellTiterGlo, read-out: EC 50), 334 to 370 nM; in [5], 1300 nM; in [7] it was 1900 nM; in experiment [8] it was 5.2 µM; in experiment [9] it was 3.8 µM. For the same compound, the results for the EC90 in experiment [4] and in [6] were 2000 nM and 5.4 µM, respectively. Besides, in [1] (FIG. 1, viral induced CPE), the “Antiviral dose response against FIPV infected feline kidney cells (in words)” value is “protective against viral induced CytoPathic Effect (CPE) in a dose dependent manner”.

The compound `CCC(CC)COC(=O)[C@H](C)N[P@](=O)(OC[C@H]1O[C@@](C#N)(c2ccc3c(N)ncnn23)[C@H](O)[C@@H]1O)Oc1ccccc1` [Remdesivir] yielded an EC50 in experiment [1] (Alphacoronavirus 1, CRFK, 96 h) of 735 to 970 nM.
